Test results: US7638283B2, “Amyloid β protein (globular assembly and uses thereof)” (Northwestern University, priority 1997, dated 2009)

Assays:
primary astrocytes = test: Activation of primary astrocyte cultures; type: cell-based
[1] = test system: brain slice cultures lacking a functional fyn gene; test: Brain slice cultures from mice that lack a functional fyn gene; type: cell-based, mouse; settings: compared to vehicle controls
Protocol: (§1) An adult mouse is sacrificed by carbon dioxide inhalation, followed by rapid decapitation. The head is emersed in cold, sterile dissection buffer (94 ml Gey's balanced salt solution, pH 7.2, supplemented with 2 mL 0.5M MgCl2, 2 ml 25% glucose, and 2 mL 1.0 M Hepes.), after which the brain is removed and placed on a sterile Sylgard-coated plate. The cerebellum is removed and a mid-line cut is made to separate the cerebral hemispheres. Each hemisphere is sliced separately. The hemisphere is placed with the mid-line cut down and a 30 degree slice from the dorsal side is made to orient the hemisphere. The hemisphere is glued cut side down on the plastic stage of a Campden tissue chopper (previously wiped with ethanol) and emersed in ice cold sterile buffer. Slices of 200 μm thickness are made from a lateral to medial direction, collecting those in which the hippocampus is visible. […] Cell death is measured using the LIVE/DEAD® assay kit (Molecular Probes, Eugene, Oreg.). This a dual-label fluorescence assay in which live cells are detected by the presence of an esterase that cleaves calcein-AM to calcein, resulting in a green fluorescence. Dead cells take up ethidium homodimer, which intercalates with DNA and has a red fluorescence. […] The MetaMorph image analysis system is used to quantify the number and/or area of cells showing green or red fluorescence. […]

[2] = test system: hippocampus, synaptic activity (LTP); test: LTP assay in injected animals; type: in vivo, mouse
Excerpt: Injections of intact animals: Mice are anesthesized with urethane and placed in a sterotaxic apparatus. Body temperature is maintained using a heated water jacket pad. The brain surface is exposed through holes in the skull. Bregma and lambda positions for injection into the middle molecular layer of hippocampus are 2 mm posterior to bregma, 1 mm lateral to the midline, and 1.2-1.5 mm ventral to the brain surface. Amyloid β oligomer injections are by nitrogen puff through ˜[…] diameter glass pipettes. Volumes of 20-50 nL of amyloid β oligomer solution (180 nM of amyloid β) are given over the course of an hour. The animal is allowed to rest for varying time periods before the LTP stimulus is given.
LTP in injected animals: Experiments follow the paradigm established Routtenberg and colleagues for LTP in mice (Namgung, et al., 1995). Perforant path stimulation from the entorhinal cortex is used, with recording from the middle molecular layer and the cell body of the dentate gyrus. […] Some sections are placed on slides subbed with gelatin and others are analyzed using a free-floating protocol. […]
Wave forms are analyzed by machine as described previously (Colley, 1990, J. Neurosci.). […]

serum starved B103 cells = test: Cell morphology by phase microscopy; type: cell-based, rat
Protocol: Cultures are grown to low density (50-60% confluence). To initiate the experiment, the cells are serum starved in F12 media for 1 hour. Cells are then incubated for 3 hours with amyloid β oligomers prepared as described in Example 1, with and without inhibitor compounds added to the cells for […]. After 3 hours, cells are examined for morphological differences or fixed for immunofluorescence labeling. Samples are examined using the MetaMorph Image Analysis system and an MRI video camera (Universal Imaging, Inc.).

hippocampal neurons = test: Neuronal viability in injected animals (brain slices after the LTP experiment); type: in vivo, mouse; settings: 20 nL injected into hippocampal region
Protocol: After the LTP experiment is performed, animals are allowed to remover for various times and then sacrificed using sodium pentobarbitol asesthetic and perfusion with 4% paraformaldehye. For viability studies, times of 3 hours, 24 hours, 3 days, and 7 days are used. The brain is cryoprotected with 30% sucrose and then sectioned ([…]) with a microtome. Sections are placed on slides subbed with gelatin and stained initially with cresyl violet. Cell loss is measured by counting cell bodies in the dentate gyrus, CA3, CA1, and entorhinal cortex and is correlated with dose and time of exposure of ADDLs.

fyn kinase = fyn kinase activity in B103 cells; type: cell-based, rat
[3] = Neurotoxicity of amyloid β fractions and samples (test system not specified); type: cell-based; settings: supernatant compared with unfractionated amyloid β aggregated under literature conditions
[4] = test system: hippocampal brain slice cultures; test: Brain slice assay (LIVE/DEAD cell death); type: cell-based, mouse
Protocol: as §1

neuronal cell cultures = test: Neurotoxicity in neuronal cell cultures; type: cell-based
Protocol: PC12 cells are passaged at 4×10^4 cell/well on a 96-well culture plate and grown for 24 hours in DMEM+10% fetal calf serum+1% S/P/F (streptomycin, penicillin, and fungizone). Plates are treated with 200 μg/mL poly-1-lysine for 2 hours prior to cell plating to enhance cell adhesion. One set of six wells is left untreated and fed with fresh media, while another set of wells is treated with the vehicle control (PBS containing 10% 0.01 N HCl, aged o/n at RT). Positive controls are treated with triton (1%) and Na Azide (0.1%) in normal growth media. Amyloid β oligomers prepared as described in Example 1, with and without inhibitor compounds present are added to the cells for 24 hours. After the 24 hour incubation, MTT (0.5 mg/mL) is added to the cells for 2.5 hours (11 μL of 5 mg/ml stock solubilized in PBS into 100 μL of media). Healthy cells reduce the MTT into a formazan blue colored product. After the incubation with MTT, the media is aspirated and 100 μL of 100% DMSO is added to lyse the cells and dissolve the blue crystals. The plate was incubated for 15 min at RT and read on a plate reader (ELISA) at 550 nm.
HN2 cells are passaged at 4×10^4 cells/well on a 96-well culture plate and grown for 24 hours in DMEM+10% fetal calf serum+1% S/P/F (streptomycin, penicillin, and fungizone). […] The plate is incubated for 15 min at RT and read on a plate reader (ELISA) at 550 nm.

B103 cells = test: FACScan assay for binding to intact cells; parameters: species or system rat
Protocol: For flow cytometry, cells are dissociated with 0.1% trypsin and plated at least overnight onto tissue culture plastic at low density. Cells are removed with cold PBS/0.5 mM EDTA, washed three times and resuspended in ice-cold PBS to a final concentration of 500,000 cells/mL. Cells are incubated in cold PBS with amyloid β oligomers prepared as described in Example 1, except that 10% of the amyloid β is an amyloid β 1-42 analog containing biocytin at position 1 replacing aspartate. Oligomers with and without inhibitor compounds present are added to the cells for 24 hours. The cells are washed twice in cold PBS to remove free, unbound amyloid β oligomers and resuspended in a 1:1,000 dilution of avidin conjugated to fluorescein and incubated for one hour at 4° C. with gentle agitation. Cells are analyzed by a Becton-Dickinson Fluorescence Activated Cell Scanner (FACScan). 10,000 or 20,000 events are collected for both forward scatter (size) and fluorescence intensity, and the data are analyzed by Consort 30 software (Becton-Dickinson). An alternative procedure uses amyloid β-specific antibodies and fluorescent secondary antibody instead of avidin, eliminating the need to incorporate 10% of the biotynylated amyloid β analog. FIG. 2 illustrates the ADDL-cell binding FACS analysis, and FIG. 3 illustrates the utility of the FACS assay for identification of ADDL-blocking compounds.

| Substance | activation of astrocytes (primary astrocytes) | mRNA for IL-1, inducible nitric oxide synthase, apo E, Apo J and α1-antichymotrypsin in astrocytes (primary astrocytes) | neurotoxicity in brain slice cultures from mice lacking a functional fyn gene [1] | LTP consolidation phase, synaptic activity as cell body spike amplitude ([2]; 20 nL injected into hippocampal region 60-70 minutes prior to LTP, over the subsequent 2 hours, compared with control animals) | LTP stimulation phase ([2]; 20 nL injected into hippocampal region of adult mouse 60-70 minutes prior to LTP) | morphology of serum starved B103 cells (serum starved B103 cells) | cell death in brain slices after the LTP experiment (hippocampal neurons) | fyn kinase activity in B103 cells (fyn kinase) | neurotoxicity of amyloid β fractions/samples [3] | neurotoxicity in brain slice cultures ([4]; supernatant of amyloid β 1-42 incubated in F12 at 4° C., Live/Dead fluorescence assay) | neurotoxicity in neuronal cell cultures (neuronal cell cultures) | receptor binding of ADDLs to B103 cells (B103 cells; 10% biotinylated amyloid β 1-42, fluorescent avidin conjugate, FACS) | blocking of the neurotoxic effects of ADDLs in the hippocampal brain slice assay ([4]; at 10 μM) | blocking of ADDL binding in the receptor assay (B103 cells; at 10 μM) |
| --- | --- | --- | --- | --- | --- | --- | --- | --- | --- | --- | --- | --- | --- | --- |
| ADDLs: amyloid β peptide assembled into non-fibrillar oligomeric structures; soluble globular assemblies of amyloid β 1-42 | become activated | become elevated | no increased neurotoxicity | significant, continuing decline in synaptic activity | identical with saline control injections | rapid morphological change | no cell death had occurred | activate fyn kinase activity | significantly higher neurotoxicity | highly neurotoxic | highly neurotoxic | saturable | – | – |
| amyloid β 1-40 [reference compound] | – | – | – | – | – | – | – | – | – | – | – | – | capable of blocking the neurotoxic effects of ADDLs | capable of blocking ADDL binding |
